From paper PMC7026418, “The kinase polypharmacology landscape of clinical PARP inhibitors” (Scientific Reports, 2020) come the findings set out here.

Where two headings read alike, the source gives them in different places.

What all share (experiment): biochemical
Holding throughout (parameters): DiscoveRx KINOMEscan active site-directed competition binding; percent of control kinase bound to immobilised ligand

Assay [1] addresses T1, JNK2 (Homo sapiens, UniProt P45984).
T1 construct: gene MAPK9

For assay [2], the target named is T2, TEC (Homo sapiens, UniProt P42680).
T2 sequence (P42680 1-631): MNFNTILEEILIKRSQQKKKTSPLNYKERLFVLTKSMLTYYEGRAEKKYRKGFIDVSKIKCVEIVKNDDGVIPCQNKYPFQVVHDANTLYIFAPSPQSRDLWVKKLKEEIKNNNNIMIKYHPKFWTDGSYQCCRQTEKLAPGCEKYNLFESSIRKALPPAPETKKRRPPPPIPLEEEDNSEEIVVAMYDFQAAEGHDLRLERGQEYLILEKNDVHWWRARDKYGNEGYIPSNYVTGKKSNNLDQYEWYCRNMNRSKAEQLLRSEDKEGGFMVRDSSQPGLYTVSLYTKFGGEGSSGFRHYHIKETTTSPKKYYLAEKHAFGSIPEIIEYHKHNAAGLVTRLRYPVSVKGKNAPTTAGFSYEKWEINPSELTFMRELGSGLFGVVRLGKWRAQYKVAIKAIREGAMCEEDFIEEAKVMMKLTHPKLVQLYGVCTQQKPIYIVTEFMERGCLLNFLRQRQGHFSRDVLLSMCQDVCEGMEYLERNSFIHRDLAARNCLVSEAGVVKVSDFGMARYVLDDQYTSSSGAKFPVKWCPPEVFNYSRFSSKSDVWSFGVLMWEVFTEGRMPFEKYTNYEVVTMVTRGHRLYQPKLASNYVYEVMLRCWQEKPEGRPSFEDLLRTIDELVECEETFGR

Assay [3] has as its target T3, PKAC-beta (Homo sapiens, UniProt P22694).
T3 construct: gene PRKACB

Assay [4] has as its target T4, ABL1(F317L)-nonphosphorylated (Homo sapiens, UniProt P00519, F317L).
T4 construct: nonphosphorylated

Assay [5] addresses CSNK1D (Homo sapiens, UniProt P48730).
The target in assay [6] is T5, MINK (Homo sapiens, UniProt Q8N4C8).
T5 construct: gene MINK1

Assay [7] deals with AKT2 (Homo sapiens, UniProt P31751).
Assay [8] has as its target T6, ERK1 (Homo sapiens, UniProt P27361).
T6 construct: gene MAPK3

Assay [9] addresses T7, TYK2(JH2domain-pseudokinase) (Homo sapiens, UniProt P29597).
T7 construct: JH2domain-pseudokinase

In assay [10] the target is T8, BRSK1 (Homo sapiens, UniProt Q8TDC3).
T8 sequence (Q8TDC3 1-778): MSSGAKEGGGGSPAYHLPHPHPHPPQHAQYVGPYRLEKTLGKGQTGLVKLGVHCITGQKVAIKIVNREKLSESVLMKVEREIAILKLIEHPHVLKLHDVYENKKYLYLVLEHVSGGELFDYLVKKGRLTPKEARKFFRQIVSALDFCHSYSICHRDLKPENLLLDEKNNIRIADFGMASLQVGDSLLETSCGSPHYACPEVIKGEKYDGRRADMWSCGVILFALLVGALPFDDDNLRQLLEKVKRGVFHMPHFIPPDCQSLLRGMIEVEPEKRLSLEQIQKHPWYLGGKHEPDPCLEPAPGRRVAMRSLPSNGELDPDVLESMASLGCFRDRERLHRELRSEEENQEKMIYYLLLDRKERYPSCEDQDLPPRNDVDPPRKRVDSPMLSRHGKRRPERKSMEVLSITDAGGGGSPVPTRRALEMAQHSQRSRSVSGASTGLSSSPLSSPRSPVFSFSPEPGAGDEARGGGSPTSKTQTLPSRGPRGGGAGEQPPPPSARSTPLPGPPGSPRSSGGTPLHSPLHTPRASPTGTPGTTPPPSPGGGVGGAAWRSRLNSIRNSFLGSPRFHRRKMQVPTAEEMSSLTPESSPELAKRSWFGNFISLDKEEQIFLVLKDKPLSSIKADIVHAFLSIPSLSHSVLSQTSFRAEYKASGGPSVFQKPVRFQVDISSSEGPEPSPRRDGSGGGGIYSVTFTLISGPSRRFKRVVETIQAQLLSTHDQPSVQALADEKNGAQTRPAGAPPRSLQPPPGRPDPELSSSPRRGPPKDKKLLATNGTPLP

Assay [11] has as its target T9, TRKC (Homo sapiens, UniProt Q16288).
T9 construct: gene NTRK3

Where [12] appears, read: read-out: Niraparib (MK-4827) / %Ctrl @ 10000nM.
Setting [13] is: read-out: Olaparib / %Ctrl @ 10000nM.
The mark [14] stands for this setting: read-out: Rucaparib / %Ctrl @ 10000nM, binding competition, % of control.
The mark [15] stands for this setting: read-out: Talazoparib (BMN 673) / %Ctrl @ 10000nM.

T7 sequence (P29597 whole entry): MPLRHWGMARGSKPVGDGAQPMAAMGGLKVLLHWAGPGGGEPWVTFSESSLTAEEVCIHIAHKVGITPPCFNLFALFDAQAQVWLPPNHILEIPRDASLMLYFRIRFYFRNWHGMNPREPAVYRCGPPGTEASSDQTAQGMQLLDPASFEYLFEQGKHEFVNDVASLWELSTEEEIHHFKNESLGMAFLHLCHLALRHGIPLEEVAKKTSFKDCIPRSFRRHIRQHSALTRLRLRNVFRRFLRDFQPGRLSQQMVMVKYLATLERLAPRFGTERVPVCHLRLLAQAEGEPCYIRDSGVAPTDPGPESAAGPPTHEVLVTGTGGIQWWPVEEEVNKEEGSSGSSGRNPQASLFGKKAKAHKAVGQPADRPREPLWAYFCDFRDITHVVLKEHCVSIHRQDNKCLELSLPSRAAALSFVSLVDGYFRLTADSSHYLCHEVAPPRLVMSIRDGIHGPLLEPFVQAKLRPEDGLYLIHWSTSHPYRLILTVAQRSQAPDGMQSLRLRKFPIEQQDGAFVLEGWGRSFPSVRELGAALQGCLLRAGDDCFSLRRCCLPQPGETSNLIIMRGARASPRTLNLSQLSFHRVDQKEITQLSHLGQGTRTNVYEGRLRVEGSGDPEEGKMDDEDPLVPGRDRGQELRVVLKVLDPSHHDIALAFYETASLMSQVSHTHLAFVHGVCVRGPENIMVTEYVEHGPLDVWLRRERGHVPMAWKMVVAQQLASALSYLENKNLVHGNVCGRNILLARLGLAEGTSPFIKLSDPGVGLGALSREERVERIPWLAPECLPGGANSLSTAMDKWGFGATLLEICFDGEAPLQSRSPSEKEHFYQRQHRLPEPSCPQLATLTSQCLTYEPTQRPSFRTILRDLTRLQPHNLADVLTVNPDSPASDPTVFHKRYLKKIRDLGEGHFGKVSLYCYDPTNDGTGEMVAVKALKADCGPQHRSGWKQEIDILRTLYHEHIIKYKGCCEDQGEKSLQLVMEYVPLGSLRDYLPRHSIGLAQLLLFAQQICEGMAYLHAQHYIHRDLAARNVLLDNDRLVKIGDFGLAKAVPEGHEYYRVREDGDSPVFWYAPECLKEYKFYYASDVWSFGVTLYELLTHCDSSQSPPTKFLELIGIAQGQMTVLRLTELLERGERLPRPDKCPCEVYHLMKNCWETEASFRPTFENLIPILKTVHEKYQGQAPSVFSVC
T4 sequence (P00519 whole entry F317L): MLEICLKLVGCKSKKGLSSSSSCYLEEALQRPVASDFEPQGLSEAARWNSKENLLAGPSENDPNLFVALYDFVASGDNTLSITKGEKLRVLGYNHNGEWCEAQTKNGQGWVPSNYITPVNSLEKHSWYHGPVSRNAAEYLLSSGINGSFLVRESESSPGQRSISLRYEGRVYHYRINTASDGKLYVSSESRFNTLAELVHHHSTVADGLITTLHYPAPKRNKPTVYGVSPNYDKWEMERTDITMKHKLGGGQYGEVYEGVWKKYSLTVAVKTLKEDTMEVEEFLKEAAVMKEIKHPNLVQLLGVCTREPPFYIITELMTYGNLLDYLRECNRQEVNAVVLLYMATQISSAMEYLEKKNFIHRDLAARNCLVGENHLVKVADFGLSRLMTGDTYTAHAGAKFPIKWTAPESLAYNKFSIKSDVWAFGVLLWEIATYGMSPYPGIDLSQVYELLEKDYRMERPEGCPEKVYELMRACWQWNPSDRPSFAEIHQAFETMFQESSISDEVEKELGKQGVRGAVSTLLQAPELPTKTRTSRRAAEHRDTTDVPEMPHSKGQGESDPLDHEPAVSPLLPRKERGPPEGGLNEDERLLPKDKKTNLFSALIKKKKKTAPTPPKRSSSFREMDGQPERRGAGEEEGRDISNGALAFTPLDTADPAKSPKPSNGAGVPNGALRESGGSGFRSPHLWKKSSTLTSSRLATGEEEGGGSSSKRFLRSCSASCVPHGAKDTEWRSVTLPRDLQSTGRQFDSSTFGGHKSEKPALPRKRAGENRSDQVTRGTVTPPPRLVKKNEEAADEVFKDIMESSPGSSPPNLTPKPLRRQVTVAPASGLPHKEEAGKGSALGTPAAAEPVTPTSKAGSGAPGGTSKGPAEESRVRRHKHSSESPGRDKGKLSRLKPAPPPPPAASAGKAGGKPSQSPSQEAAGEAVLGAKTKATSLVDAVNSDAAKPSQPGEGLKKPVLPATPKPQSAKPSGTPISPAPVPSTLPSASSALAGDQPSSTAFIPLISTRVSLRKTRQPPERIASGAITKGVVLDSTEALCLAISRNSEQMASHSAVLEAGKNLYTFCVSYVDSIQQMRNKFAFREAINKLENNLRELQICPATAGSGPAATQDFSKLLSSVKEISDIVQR
T9 sequence (Q16288 whole entry): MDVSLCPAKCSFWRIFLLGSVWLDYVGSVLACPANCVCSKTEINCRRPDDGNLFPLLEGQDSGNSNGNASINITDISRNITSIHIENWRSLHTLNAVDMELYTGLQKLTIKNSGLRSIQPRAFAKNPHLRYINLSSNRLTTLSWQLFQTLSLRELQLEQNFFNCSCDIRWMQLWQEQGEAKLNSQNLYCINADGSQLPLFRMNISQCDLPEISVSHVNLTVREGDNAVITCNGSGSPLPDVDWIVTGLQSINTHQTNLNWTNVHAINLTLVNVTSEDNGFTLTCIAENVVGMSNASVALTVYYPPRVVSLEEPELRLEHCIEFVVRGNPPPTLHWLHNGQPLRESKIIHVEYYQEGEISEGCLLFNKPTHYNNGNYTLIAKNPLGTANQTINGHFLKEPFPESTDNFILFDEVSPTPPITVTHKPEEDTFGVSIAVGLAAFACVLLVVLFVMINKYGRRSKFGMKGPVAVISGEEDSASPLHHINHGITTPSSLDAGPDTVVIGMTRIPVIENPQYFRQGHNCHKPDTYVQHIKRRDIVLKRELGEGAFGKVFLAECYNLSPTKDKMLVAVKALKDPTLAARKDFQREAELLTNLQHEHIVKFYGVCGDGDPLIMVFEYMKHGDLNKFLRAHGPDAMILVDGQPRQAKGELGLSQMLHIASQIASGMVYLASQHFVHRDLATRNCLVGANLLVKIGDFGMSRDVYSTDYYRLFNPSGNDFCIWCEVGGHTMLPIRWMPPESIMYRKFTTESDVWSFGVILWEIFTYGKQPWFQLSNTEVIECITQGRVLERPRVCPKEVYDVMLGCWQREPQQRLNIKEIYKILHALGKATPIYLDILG
T1 sequence (P45984 whole entry): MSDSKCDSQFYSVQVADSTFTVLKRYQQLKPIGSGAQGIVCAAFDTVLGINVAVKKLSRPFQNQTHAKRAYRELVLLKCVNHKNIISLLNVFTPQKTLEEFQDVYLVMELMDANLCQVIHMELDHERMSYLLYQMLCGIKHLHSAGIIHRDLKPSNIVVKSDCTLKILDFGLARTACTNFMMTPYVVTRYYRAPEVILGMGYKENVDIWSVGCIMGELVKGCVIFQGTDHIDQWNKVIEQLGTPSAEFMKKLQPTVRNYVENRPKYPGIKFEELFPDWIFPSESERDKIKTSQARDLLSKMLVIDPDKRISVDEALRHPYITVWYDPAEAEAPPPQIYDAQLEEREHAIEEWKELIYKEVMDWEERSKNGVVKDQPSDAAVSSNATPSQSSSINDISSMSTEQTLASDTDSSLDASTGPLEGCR
Sequence of CSNK1D (P48730 whole entry): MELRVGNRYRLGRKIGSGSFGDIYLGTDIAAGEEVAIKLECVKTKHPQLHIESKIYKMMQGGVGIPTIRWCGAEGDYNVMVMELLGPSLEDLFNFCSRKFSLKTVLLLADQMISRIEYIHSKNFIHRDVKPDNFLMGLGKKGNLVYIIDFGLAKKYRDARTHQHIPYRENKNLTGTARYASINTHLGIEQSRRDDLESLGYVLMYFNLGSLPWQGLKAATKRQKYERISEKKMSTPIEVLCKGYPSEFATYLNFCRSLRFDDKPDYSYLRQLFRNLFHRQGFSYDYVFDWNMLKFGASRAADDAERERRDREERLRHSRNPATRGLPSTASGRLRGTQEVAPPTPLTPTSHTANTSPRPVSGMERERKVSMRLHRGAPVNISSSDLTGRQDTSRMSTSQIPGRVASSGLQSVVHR
Sequence of AKT2 (P31751 whole entry): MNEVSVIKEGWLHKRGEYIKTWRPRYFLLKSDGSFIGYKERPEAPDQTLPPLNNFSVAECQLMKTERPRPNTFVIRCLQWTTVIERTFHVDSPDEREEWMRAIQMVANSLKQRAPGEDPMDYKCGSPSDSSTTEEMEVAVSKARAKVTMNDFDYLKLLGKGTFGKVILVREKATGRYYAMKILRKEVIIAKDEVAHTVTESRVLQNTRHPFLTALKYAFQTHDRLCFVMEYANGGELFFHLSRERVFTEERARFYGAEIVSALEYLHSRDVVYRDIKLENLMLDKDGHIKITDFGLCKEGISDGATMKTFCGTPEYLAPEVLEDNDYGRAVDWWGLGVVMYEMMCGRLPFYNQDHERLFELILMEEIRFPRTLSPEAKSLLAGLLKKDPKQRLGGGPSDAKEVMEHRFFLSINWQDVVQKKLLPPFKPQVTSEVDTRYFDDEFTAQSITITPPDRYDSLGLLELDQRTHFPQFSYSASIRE
T6 sequence (P27361 whole entry): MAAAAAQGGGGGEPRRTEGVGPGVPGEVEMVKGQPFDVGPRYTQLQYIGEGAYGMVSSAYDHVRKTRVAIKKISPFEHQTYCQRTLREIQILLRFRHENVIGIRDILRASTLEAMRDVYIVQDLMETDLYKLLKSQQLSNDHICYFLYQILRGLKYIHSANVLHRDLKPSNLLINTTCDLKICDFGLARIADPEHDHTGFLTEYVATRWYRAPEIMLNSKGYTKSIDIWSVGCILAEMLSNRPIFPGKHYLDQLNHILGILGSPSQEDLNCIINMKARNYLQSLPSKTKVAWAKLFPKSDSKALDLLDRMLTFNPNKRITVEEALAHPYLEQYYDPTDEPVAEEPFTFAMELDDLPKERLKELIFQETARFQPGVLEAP

As to `NC(=O)c1cccc2cn(-c3ccc([C@@H]4CCCNC4)cc3)nc12` [Niraparib], the percent of control binding at 10 µM in [1] (setting [12]) is 95%; in assay [2] (setting [12]) it was 76%; in assay [3] (setting [12]), 96%; in assay [4] (setting [12]) it was 96%; in [5] (setting [12]) it was 57%; in [6] (setting [12]) it was 67%. The percent of control binding at 10 µM in assay [7] (setting [12]) was 93%; in assay [8] (setting [12]) it was 98%; in [9] (setting [12]), 37%; in assay [10] (setting [12]) it was 92%; in assay [11] (setting [12]), 95%.

On to `O=C(c1cc(Cc2n[nH]c(=O)c3ccccc23)ccc1F)N1CCN(C(=O)C2CC2)CC1` [Olaparib], for which the percent of control binding at 10 µM was 81% in [1] (setting [13]); 100% in assay [2] (setting [13]); 100% in assay [3] (setting [13]); 81% in assay [4] (setting [13]); 96% in [5] (setting [13]); 100% in [6] (setting [13]). The percent of control binding at 10 µM in assay [7] (setting [13]) was determined as 79%; in [8] (setting [13]) it was 98%; in assay [9] (setting [13]), 79%; in assay [10] (setting [13]), 91%; in assay [11] (setting [13]), 92%.

In the case of `CNCc1ccc(-c2[nH]c3cc(F)cc4c3c2CCNC4=O)cc1` [Rucaparib], the percent of control binding at 10 µM in [1] (setting [14]) amounted to 68%; in [2] (setting [14]), 100%; in [3] (setting [14]), 99%; in assay [4] (setting [14]), 69%; in assay [5] (setting [14]), 63%; in assay [6] (setting [14]), 29%. Also, the percent of control binding at 10 µM was found to be 87% in assay [7] (setting [14]); 100% in assay [8] (setting [14]); 7.6% in assay [9] (setting [14]); 74% in [10] (setting [14]); 88% in assay [11] (setting [14]).

For the molecule `Cn1ncnc1[C@H]1c2n[nH]c(=O)c3cc(F)cc(c23)N[C@@H]1c1ccc(F)cc1` [Talazoparib], the percent of control binding at 10 µM came to 95% in assay [1] (setting [15]); 92% in [2] (setting [15]); 56% in [3] (setting [15]); 58% in assay [4] (setting [15]); 100% in [5] (setting [15]); 100% in [6] (setting [15]). For the same molecule, the percent of control binding at 10 µM in assay [7] (setting [15]) amounted to 84%; in assay [8] (setting [15]), 87%; in assay [9] (setting [15]), 84%; in assay [10] (setting [15]), 100%; in assay [11] (setting [15]), 100%.
